According to patent US4400387A, “Indolizine derivatives and uses in therapeutics” (S. A. Labaz-Sanofi N.V., priority 1979, dated 1983):

The compounds below were run against T1, xanthine oxidase found in milk (Bos taurus, UniProt P80457) (assay: Inhibition of the action of xanthine oxidase in vitro (U.V. spectrophotometry, formation of uric acid from hypoxanthine)). Settings: compound at 10^-5 M; hypoxanthine substrate, pH 7.4, 37° C.
T1 construct: purchased
Type: biochemical
Method: This trial was performed with xanthine oxidase found in milk. The activity of the enzymatic preparation was measured by following the formation of uric acid starting from hypoxanthine in the presence of oxygen and of a phosphate buffer solution.
(§1) The experimental procedure described hereunder was used:
In the absorption cell, the following solutions were introduced:
1.5 ml of a 0.1 molar phosphate buffer solution (pH=7.4) saturated with oxygen.
0.3 ml of a 1 m molar solution of ethylene diamine tetraacetate.
0.01 ml of a commercial xanthine oxidase solution having a known concentration in enzyme.
0.01 ml of a 3.10^-3 molar ethanolic solution of the compound to be tested.
The contents of the absorption cell were allowed to incubate for 2 minutes and then the enzymatic reaction was started by adding 0.3 ml of a 10^-3 molar solution of hypoxanthine to the absorption cell. The reaction was followed by spectrophotometric recording of the oxidation rate of hypoxanthine at 293 nm and at 37° C. The optical density was automatically registered. The same measurements were performed with a control solution containing all the ingredients referred to above except the compound being tested.
In this way, a curve representing the variation in optical density in comparison with time was obtained with the solution containing the inhibitor on the one hand and devoid of inhibitor on the other. The slope of both curves was measured and expressed in the number of mols of uric acid formed in one minute. Thus, it was possible to compare the values obtained and calculate, in percent, the inhibition of the activity of xanthine oxidase provoked by a compound of the invention.

T1 sequence (P80457 whole entry): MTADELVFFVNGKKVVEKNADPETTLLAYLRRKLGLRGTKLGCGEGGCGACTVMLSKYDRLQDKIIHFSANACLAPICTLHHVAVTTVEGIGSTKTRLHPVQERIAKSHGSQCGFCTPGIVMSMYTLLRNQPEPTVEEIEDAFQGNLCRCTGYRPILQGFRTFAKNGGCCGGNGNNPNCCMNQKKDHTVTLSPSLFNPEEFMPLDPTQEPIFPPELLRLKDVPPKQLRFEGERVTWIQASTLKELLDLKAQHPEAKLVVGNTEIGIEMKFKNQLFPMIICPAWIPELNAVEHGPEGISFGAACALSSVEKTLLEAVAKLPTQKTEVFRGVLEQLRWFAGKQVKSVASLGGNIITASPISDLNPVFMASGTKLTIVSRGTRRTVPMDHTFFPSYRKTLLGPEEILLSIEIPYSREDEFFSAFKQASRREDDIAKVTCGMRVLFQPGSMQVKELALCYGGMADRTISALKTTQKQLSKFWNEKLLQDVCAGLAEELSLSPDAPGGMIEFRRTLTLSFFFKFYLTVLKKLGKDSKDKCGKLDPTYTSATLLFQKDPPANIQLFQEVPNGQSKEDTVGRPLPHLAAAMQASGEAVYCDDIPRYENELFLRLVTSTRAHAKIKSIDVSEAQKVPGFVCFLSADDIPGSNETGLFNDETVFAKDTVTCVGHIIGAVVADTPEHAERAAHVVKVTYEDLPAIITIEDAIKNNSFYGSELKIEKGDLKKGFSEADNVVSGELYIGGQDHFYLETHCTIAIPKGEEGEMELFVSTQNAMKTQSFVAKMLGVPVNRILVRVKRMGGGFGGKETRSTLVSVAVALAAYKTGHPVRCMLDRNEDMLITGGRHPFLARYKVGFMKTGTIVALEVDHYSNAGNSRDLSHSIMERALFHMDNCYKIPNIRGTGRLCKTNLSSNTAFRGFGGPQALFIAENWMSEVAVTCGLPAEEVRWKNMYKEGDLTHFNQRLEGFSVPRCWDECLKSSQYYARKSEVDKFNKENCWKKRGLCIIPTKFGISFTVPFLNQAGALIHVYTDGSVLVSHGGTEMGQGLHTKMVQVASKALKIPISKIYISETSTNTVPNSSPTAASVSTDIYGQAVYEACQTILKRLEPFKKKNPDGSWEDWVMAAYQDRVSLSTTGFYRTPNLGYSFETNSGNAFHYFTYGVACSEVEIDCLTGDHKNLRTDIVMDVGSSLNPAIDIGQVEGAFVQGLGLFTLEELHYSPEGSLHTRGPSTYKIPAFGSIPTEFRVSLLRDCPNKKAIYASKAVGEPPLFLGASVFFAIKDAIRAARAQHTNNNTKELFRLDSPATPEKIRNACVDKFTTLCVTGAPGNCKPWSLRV

| inhibition at 10 µM [%] | Compound |
| --- | --- |
| 23 | O=C(c1cc(Br)c(O)c(Br)c1)c1c(-c2ccc(Br)cc2)cc2ccccn12 [4-Bromo-phenyl H Br Br, 2-(4-Bromo-phenyl)-3-(3,5-dibromo-4-hydroxy-benzoyl)-indolizine] |
| 22 | O=C(c1ccc(O)c(Br)c1)c1c(-c2ccc(Br)cc2)cc2ccccn12 [4-Bromo-phenyl H H Br, 2-(4-Bromo-phenyl)-3-(3-bromo-4-hydroxy-benzoyl)-indolizine] |
| 80 | COc1ccc(-c2c(Br)c3ccccn3c2C(=O)c2ccc(O)c(Br)c2)cc1 [4-Methoxy-phenyl Br Br H, 1-Bromo-2-(4-methoxy-phenyl)-3-(3-bromo-4-hydroxy-benzoyl)-indolizine] |
| 48 | Cc1ccc(-c2c(Br)c3ccccn3c2C(=O)c2ccc(O)cc2)cc1 [4-Methyl-phenyl Br H H, 1-Bromo-2-(4-methyl-phenyl)-3-(4-hydroxy-benzoyl)-indolizine] |
| 93 | CCc1c(Br)c2ccccn2c1C(=O)c1ccc(O)c(Br)c1 [Ethyl Br Br H, 1-Bromo-2-ethyl-3-(3-bromo-4-hydroxy-benzoyl)-indolizine] |
| 34 | CCc1c(Cl)c2ccccn2c1C(=O)c1ccc(O)c(Br)c1 [Ethyl Cl Br H, 1-Chloro-2-ethyl-3-(3-bromo-4-hydroxy-benzoyl)-indolizine] |

The remaining lines, values behind:

| Compound | inhibition at 10 µM [%] |
| --- | --- |
| O=C(c1ccc(O)c(Cl)c1)c1c(-c2cccc(Br)c2)cc2ccccn12 [3-Bromo-phenyl H H Cl, 2-(3-Bromo-phenyl)-3-(3-chloro-4-hydroxy-benzoyl)-indolizine] | 23 |
| CCc1c(Cl)c2ccccn2c1C(=O)c1cc(Br)c(O)c(Br)c1 [Ethyl Cl Br Br, 1-Chloro-2-ethyl-3-(3,5-dibromo-4-hydroxy-benzoyl)-indolizine] | 64 |
| CCc1cc2ccccn2c1C(=O)c1cc(Cl)c(O)c(Cl)c1 [Ethyl H Cl Cl, 2-Ethyl-3-(3,5-dichloro-4-hydroxy-benzoyl)-indolizine] | 98 |
| CCc1cc2ccccn2c1C(=O)c1ccc(O)c(Cl)c1 [Ethyl H H Cl, 2-Ethyl-3-(3-chloro-4-hydroxy-benzoyl)-indolizine] | 87 |

Each compound was assayed against T2, adenosine deaminase obtained from calf intestine (Bos taurus, UniProt P56658) (assay: Inhibition of the action of adenosine deaminase in vitro (decrease in absorbance at 265 nm)). Settings: 5.10^-5 M adenosine; pH 7.4, 30° C.
T2 construct: purchased
T2 sequence (P56658 1-363): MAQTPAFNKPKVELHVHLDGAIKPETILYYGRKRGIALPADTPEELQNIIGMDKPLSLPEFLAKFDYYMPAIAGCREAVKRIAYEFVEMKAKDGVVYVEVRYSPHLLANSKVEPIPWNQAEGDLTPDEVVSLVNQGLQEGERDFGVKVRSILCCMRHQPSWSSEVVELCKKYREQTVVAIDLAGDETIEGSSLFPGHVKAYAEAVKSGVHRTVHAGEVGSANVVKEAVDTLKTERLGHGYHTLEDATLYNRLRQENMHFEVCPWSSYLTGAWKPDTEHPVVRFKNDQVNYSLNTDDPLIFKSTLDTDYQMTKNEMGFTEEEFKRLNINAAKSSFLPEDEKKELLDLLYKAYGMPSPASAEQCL
Type: biochemical
Method: This test was performed with adenosine deaminase obtained from calf intestine.
as §1
In the absorption cell the following solutions were introduced:
2.7 ml of a 0.1 molar phosphate buffer solution (pH=7.4)
0.3 ml of a 10^-4 or 5.10^-4 molar solution of adenosine in the phosphate buffer solution (final concentration in adenosine: 10^-5 or 5.10^-5 mol) 0.01 ml of a 3.10^-3 molar ethanolic solution of the compound to be studied (about 10 milliunits)
The contents of the absorption cell were allowed to incubate for 2 minutes and then the enzymatic reaction was started by adding 0.03 ml of a commercial adenosine deaminase solution having a known concentration in enzyme. The reaction was performed at 30° C. and followed by spectrophotometric recording of the decrease in absorbance at 265 nm due to the transformation of adenosine into inosine by means of adenosine deaminase. This enzymatic reaction can be represented by the following equation: [formula]
The same measurements were performed with a control solution containing all the ingredients referred to above except the compound being studied. Curves were then plotted representing the decrease in absorbance in comparison with time obtained on the one hand with the solution containing the inhibitor and on the other with the control solution.
The slope of both curves was measured and expressed in the number of mols of inosine formed in one minute. After that, the percent of inhibition of the activity of adenosine deaminase provoked by a compound of the invention was calculated.

| Inhibition of the action of adenosine deaminase in vitro (in %) At 5.10^-5 M adenosine [%] | Compound |
| --- | --- |
| 55 | O=C(c1ccc(O)cc1)c1c(-c2cccc(Br)c2)c(Cl)c2ccccn12 [3-Bromo-phenyl Cl H H, 1-Chloro-2-(3-bromo-phenyl)-3-(4-hydroxy-benzoyl)indolizine] |
| 39 | COc1cc(C(=O)c2c(-c3ccc(F)cc3)cc3ccccn23)ccc1O [4-Fluoro-phenyl H H OCH3, 2-(4-Fluoro-phenyl)-3-(3-methoxy-4-hydroxy-benzoyl)-indolizine] |
| 54 | CC(C)c1c(Br)c2ccccn2c1C(=O)c1ccc(O)c(Br)c1 [Isopropyl Br Br H, 1-Bromo-2-isopropyl-3-(3-bromo-4-hydroxy-benzoyl)-indolizine] |
| 86 | O=C(c1ccc(O)c(Cl)c1)c1c(-c2ccccc2)c(Br)c2ccccn12 [Phenyl Br Cl H, 1-Bromo-2-phenyl-3-(3-chloro-4-hydroxy-benzoyl)-indolizine] |
| 52 | O=C(c1ccc(O)cc1)c1c(-c2ccccc2)c(Br)c2ccccn12 [Phenyl Br H H, 1-Bromo-2-phenyl-3-(4-hydroxy-benzoyl)-indolizine] |
| 57 | O=C(c1cc(Cl)c(O)c(Cl)c1)c1c(-c2ccccc2)c(Cl)c2ccccn12 [Phenyl Cl Cl Cl, 1-Chloro-2-phenyl-3-(3,5-dichloro-4-hydroxy-benzoyl)-indolizine] |
| 91 | COc1c(-c2ccccc2)c(C(=O)c2ccc(O)c(Br)c2)n2ccccc12 [Phenyl OCH3 Br H, 1-Methoxy-2-phenyl-3-(3-bromo-4-hydroxy-benzoyl)-indolizine] |
| 82 | COc1c(-c2ccccc2)c(C(=O)c2ccc(O)c(Cl)c2)n2ccccc12 [Phenyl OCH3 Cl H, 1-Methoxy-2-phenyl-3-(3-chloro-4-hydroxy-benzoyl)-indolizine] |

Same assay, conditions: 10^-5 M adenosine; pH 7.4, 30° C.

| Inhibition of the action of adenosine deaminase in vitro (in %) At 10^-5 M adenosine | Compound |
| --- | --- |
| 60% | O=C(c1ccc(O)c(Br)c1)c1c(-c2ccc(F)cc2)cc2ccccn12 [4-Fluoro-phenyl H H Br, 2-(4-Fluoro-phenyl)-3-(3-bromo-4-hydroxy-benzoyl)-indolizine] |
| 75% | CC(C)c1c(Br)c2ccccn2c1C(=O)c1ccc(O)c(Br)c1 [Isopropyl Br Br H, 1-Bromo-2-isopropyl-3-(3-bromo-4-hydroxy-benzoyl)-indolizine] |
| 78% | O=C(c1ccc(O)c(Br)c1)c1c(-c2ccccc2)cc2ccccn12 [Phenyl H H Br, 2-Phenyl-3-(3-bromo-4-hydroxy-benzoyl)-indolizine] |

More lines, now with the values behind:

| Compound | Inhibition of the action of adenosine deaminase in vitro (in %) At 10^-5 M adenosine |
| --- | --- |
| CCc1oc2ccccc2c1C(=O)c1cc(Br)c(O)c(Br)c1 [2-ethyl-3-(3,5-dibromo-4-hydroxy-benzoyl)-benzofuran, reference compound] | totally inactive |
| CCc1oc2ccccc2c1C(=O)c1cc(I)c(O)c(I)c1 [2-ethyl-3-(3,5-diiodo-4-hydroxy-benzoyl)-benzofuran, reference compound] | totally inactive |
| CCc1oc2ccccc2c1C(=O)c1ccc(O)cc1 [2-ethyl-3-(4-hydroxy-benzoyl)-benzofuran, reference compound] | 18% |
| CC(C)c1oc2ccccc2c1C(=O)c1cc(Br)c(O)c(Br)c1 [2-isopropyl-3-(3,5-dibromo-4-hydroxy-benzoyl)-benzofuran, reference compound] | totally inactive |
| CCCCc1oc2ccccc2c1C(=O)c1cc(Br)c(O)c(Br)c1 [2-n-butyl-3-(3,5-dibromo-4-hydroxy-benzoyl)-benzofuran, reference compound] | totally inactive |
| O=C(c1cc(Br)c(O)c(Br)c1)c1c(-c2ccccc2)oc2ccccc12 [2-phenyl-3-(3,5-dibromo-4-hydroxy-benzoyl)-benzofuran, reference compound] | 15% |
| CC(C)c1c(Br)c2ccccn2c1C(=O)c1cc(Br)c(O)c(Br)c1 [Isopropyl Br Br Br, 1-Bromo-2-isopropyl-3-(3,5-dibromo-4-hydroxy-benzoyl)-indolizine] | 57% |
| O=C(c1ccc(O)c(Cl)c1)c1c(-c2ccccc2)cc2ccccn12 [Phenyl H H Cl, 2-Phenyl-3-(3-chloro-4-hydroxy-benzoyl)-indolizine] | 58% |
| CCCCc1c(Br)c2ccccn2c1C(=O)c1ccc(O)cc1 [n-Butyl Br H H, 1-Bromo-2-n-butyl-3-(4-hydroxy-benzoyl)-indolizine] | 45% |
| CCCCc1cc2ccccn2c1C(=O)c1ccc(O)c(Br)c1 [n-Butyl H H Br, 2-n-Butyl-3-(3-bromo-4-hydroxy-benzoyl)-indolizine] | 60% |
| CCCc1cc2ccccn2c1C(=O)c1ccc(O)c(Cl)c1 [n-Propyl H H Cl, 2-n-Propyl-3-(3-chloro-4-hydroxy-benzoyl)-indolizine] | 42% |
